Laboratory results from patent publication US4163801A, “Treatment of animals with 2,6-bis(2-hydroxybenzyl)phenols to eradicate trematodes” (ICI Australia Limited, priority 1976, dated 1979).

What was measured:
[1] = system: sheep liver fluke (Fasciola hepatica); assay: Flukicidal activity in sheep infected with sheep liver fluke: faecal egg count and post mortem adult fluke count after single dose (Table II); format: in vivo; conditions: for Post Mortem Results: No of adult fluke: sheep liver; for Faecal Egg Count: sheep
Procedure: Compositions suitable for use as experimental aqueous oral drenches were prepared in the following general manner. A mixture of the required amount of active ingredient was mixed with 40 ml of an aqueous 0.25% w/w solution of "Lubrol E" ("Lubrol E" is a Registered Trade Mark for an octylphenol ethoxylate). The mixture was ball-milled for 30 minutes and the resultant suspension was used as an aqueous drench.
Compositions suitable for use as experimental injectable solutions were prepared by dissolving the chemical in propylene glycol and adjusting the concentration to 10% w/v active ingredient.
Compositions prepared by the methods of Examples 21 and 22 were used as a single dose to test sheep infected with sheep liver fluke (Fasciola hepatica). The number of liver fluke eggs in the faeces was measured at the time of treatment and at selected intervals up to 14 days after treatment. The sheep were killed on day 14 and the number of adult fluke in the liver counted. The amount and structure of active ingredient in each composition and the results of treatment of a sheep with that composition are given in the Table II below. The compositions were administered either by oral drench (oral) or by sub-cutaneous injection (s/c).

[2] = system: immature fluke; assay: Effectiveness against immature fluke (Table II footnotes); format: in vivo, Fasciola hepatica; conditions: oral route

## O=[N+]([O-])c1cc(Cl)cc(Cc2cc(Cl)cc(Cc3cc(Cl)cc([N+](=O)[O-])c3O)c2O)c1O [Compound 9, 2,6-Bis(5-chloro-2-hydroxy-3-nitrobenzyl)-4-chlorophenol]
[1]; 12.5 mg/kg s/c, killed day 14
  Post Mortem Results: No of adult fluke: 3
[1]; 12.5 mg/kg s/c, day 7
  Faecal Egg Count: 0 Eggs per g faeces
[1]; 12.5 mg/kg s/c, day 14
  Faecal Egg Count: 10 Eggs per g faeces

## Oc1c(Br)cc(Cl)cc1Cc1cc(Cl)cc(Cc2cc(Cl)cc(Br)c2O)c1O [Compound 12]
[1]; 4.0 mg/kg oral, killed day 14
  Post Mortem Results: No of adult fluke: 0
[1]; 12.5 mg/kg oral, killed day 14
  Post Mortem Results: No of adult fluke: 0
[1]; 4.0 mg/kg oral, day 7
  Faecal Egg Count: 0 Eggs per g faeces
[1]; 4.0 mg/kg oral, day 14
  Faecal Egg Count: 0 Eggs per g faeces
[1]; 12.5 mg/kg oral, day 7
  Faecal Egg Count: 40 Eggs per g faeces
[1]; 12.5 mg/kg oral, day 14
  Faecal Egg Count: 0 Eggs per g faeces

## Oc1c(Br)cc(Cl)cc1Cc1cc(F)cc(Cc2cc(Cl)cc(Br)c2O)c1O [Compound 4, 2,6-bis(3-bromo-5-chloro-2-hydroxybenzyl)-4-fluorophenol]
[1]; 1.0 mg/kg oral, killed day 14
  Post Mortem Results: No of adult fluke: 0
[1]; 2.0 mg/kg s/c, killed day 14
  Post Mortem Results: No of adult fluke: 0
[1]; 3.1 mg/kg oral, killed day 14
  Post Mortem Results: No of adult fluke: 0
[1]; 6.3 mg/kg oral, killed day 14
  Post Mortem Results: No of adult fluke: 0
[1]; 12.5 mg/kg oral, Day 29
  Post Mortem Results: No of adult fluke: 0
[1]; 2.0 mg/kg s/c, day 7
  Faecal Egg Count: 20 Eggs per g faeces
[1]; 2.0 mg/kg s/c, day 14
  Faecal Egg Count: 0 Eggs per g faeces
[1]; 3.1 mg/kg oral, day 2
  Faecal Egg Count: 0 Eggs per g faeces
[1]; 3.1 mg/kg oral, day 7
  Faecal Egg Count: 10 Eggs per g faeces
[1]; 3.1 mg/kg oral, day 14
  Faecal Egg Count: 0 Eggs per g faeces
[1]; 6.3 mg/kg oral, day 2
  Faecal Egg Count: 70 Eggs per g faeces
[1]; 6.3 mg/kg oral, day 7
  Faecal Egg Count: 0 Eggs per g faeces
[1]; 12.5 mg/kg oral, day 2
  Faecal Egg Count: 2520 Eggs per g faeces
[1]; 12.5 mg/kg oral, day 7
  Faecal Egg Count: 200 Eggs per g faeces
[1]; 12.5 mg/kg oral, day 14
  Faecal Egg Count: 0 Eggs per g faeces
[2]; 5.0 mg/kg
  effective against immature fluke: 49%
[2]; 7.5 mg/kg
  effective against immature fluke: 85%
[2]; 10 mg/kg
  effective against immature fluke: 98%

## CC(c1cc(Cl)cc(Cl)c1O)c1cc(F)cc(Cc2cc(F)cc(Br)c2O)c1O (stereo not drawn) [Compound 46]
[1]; 12.5 mg/kg oral, killed day 14
  Post Mortem Results: No of adult fluke: 0
[1]; 12.5 mg/kg oral, day 7
  Faecal Egg Count: 0 Eggs per g faeces
[1]; 12.5 mg/kg oral, day 14
  Faecal Egg Count: 0 Eggs per g faeces

## Oc1c(I)cc(F)cc1Cc1cc(F)cc(Cc2cc(F)cc(I)c2O)c1O [Compound 38]
[1]; 6.3 mg/kg oral, killed day 14
  Post Mortem Results: No of adult fluke: 0
[1]; 4.0 mg/kg oral, day 7
  Faecal Egg Count: 50 Eggs per g faeces
[1]; 4.0 mg/kg oral, day 14
  Faecal Egg Count: 80 Eggs per g faeces
[1]; 6.3 mg/kg oral, day 7
  Faecal Egg Count: 190 Eggs per g faeces
[1]; 6.3 mg/kg oral, day 14
  Faecal Egg Count: 0 Eggs per g faeces

## CC(c1cc(Cl)cc(Cl)c1O)c1cc(F)cc(Cc2cc(Cl)cc(Br)c2O)c1O (stereo not drawn) [Compound 30, 2-(3-Bromo-5chloro-2-hydroxybenzyl)-6-[1-(3,5-dichloro-2-hydroxyphenyl)ethyl]-4-fluorophenol]
[1]; 12.5 mg/kg oral, killed day 14
  Post Mortem Results: No of adult fluke: 0
[1]; 12.5 mg/kg oral, day 7
  Faecal Egg Count: 0 Eggs per g faeces
[1]; 12.5 mg/kg oral, day 14
  Faecal Egg Count: 0 Eggs per g faeces

## Oc1c(Br)cc(Br)cc1Cc1cc(Cl)cc(Cc2cc(Br)cc(Br)c2O)c1O [Compound 11]
[1]; 12.5 mg/kg oral, killed day 14
  Post Mortem Results: No of adult fluke: 12
[1]; 12.5 mg/kg oral, day 7
  Faecal Egg Count: 130 Eggs per g faeces
[1]; 12.5 mg/kg oral, day 14
  Faecal Egg Count: 40 Eggs per g faeces

## Oc1c(Br)cc(Br)cc1Cc1cc(F)cc(Cc2cc(Br)cc(Br)c2O)c1O [Compound 14]
[1]; 4.0 mg/kg oral, killed day 14
  Post Mortem Results: No of adult fluke: 1
[1]; 12.5 mg/kg oral, killed day 14
  Post Mortem Results: No of adult fluke: 0
[1]; 4.0 mg/kg oral, day 7
  Faecal Egg Count: 0 Eggs per g faeces
[1]; 4.0 mg/kg oral, day 14
  Faecal Egg Count: 0 Eggs per g faeces
[1]; 12.5 mg/kg oral, day 7
  Faecal Egg Count: 60 Eggs per g faeces
[1]; 12.5 mg/kg oral, day 14
  Faecal Egg Count: 0 Eggs per g faeces

## Oc1c(Cl)cc(Cl)cc1Cc1cc(F)cc(Cc2cc(Cl)cc(Cl)c2O)c1O [Compound 18, 2,6-bis(3,5-dichloro-2-hydroxybenzyl)-4-fluorophenol]
[1]; 12.5 mg/kg oral, killed day 14
  Post Mortem Results: No of adult fluke: 0
[1]; 12.5 mg/kg oral, day 7
  Faecal Egg Count: 0 Eggs per g faeces
[1]; 12.5 mg/kg oral, day 14
  Faecal Egg Count: 0 Eggs per g faeces

## CC(c1cc(F)cc(Br)c1O)c1cc(Cl)cc(C(C)c2cc(F)cc(Br)c2O)c1O (stereo not drawn) [Compound 40, 2,6-Bis[1-(3-bromo-5-fluoro-2-hydroxyphenyl)ethyl]-4-chlorophenol]
[1]; 12.5 mg/kg oral, killed day 14
  Post Mortem Results: No of adult fluke: 11
[1]; 12.5 mg/kg oral, day 7
  Faecal Egg Count: 0 Eggs per g faeces
[1]; 12.5 mg/kg oral, day 14
  Faecal Egg Count: 0 Eggs per g faeces

## Oc1c(Br)cc(F)cc1Cc1cc(F)cc(Cc2cc(F)cc(Br)c2O)c1O [Compound 22]
[1]; 6.3 mg/kg oral, killed day 14
  Post Mortem Results: No of adult fluke: 0
[1]; 12.5 mg/kg oral, killed day 14
  Post Mortem Results: No of adult fluke: 0
[1]; 6.3 mg/kg oral, day 7
  Faecal Egg Count: 0 Eggs per g faeces
[1]; 6.3 mg/kg oral, day 14
  Faecal Egg Count: 0 Eggs per g faeces
[1]; 12.5 mg/kg oral, day 7
  Faecal Egg Count: 1340 Eggs per g faeces
[1]; 12.5 mg/kg oral, day 14
  Faecal Egg Count: 0 Eggs per g faeces

## Oc1c(I)cc(F)cc1Cc1cc(Cl)cc(Cc2cc(F)cc(I)c2O)c1O [Compound 24]
[1]; 12.5 mg/kg oral, killed day 14
  Post Mortem Results: No of adult fluke: 0
[1]; 12.5 mg/kg oral, day 7
  Faecal Egg Count: 20 Eggs per g faeces
[1]; 12.5 mg/kg oral, day 14
  Faecal Egg Count: 0 Eggs per g faeces

## CC(c1cc(F)cc(Br)c1O)c1cc(Cl)cc(Cc2cc(F)cc(Br)c2O)c1O (stereo not drawn) [Compound 39]
[1]; 3.0 mg/kg oral, killed day 14
  Post Mortem Results: No of adult fluke: 0
[1]; 6.0 mg/kg oral, killed day 14
  Post Mortem Results: No of adult fluke: 0
[1]; 3.0 mg/kg oral, day 7
  Faecal Egg Count: 210 Eggs per g faeces
[1]; 3.0 mg/kg oral, day 14
  Faecal Egg Count: 0 Eggs per g faeces
[1]; 6.0 mg/kg oral, day 7
  Faecal Egg Count: 60 Eggs per g faeces
[1]; 6.0 mg/kg oral, day 14
  Faecal Egg Count: 0 Eggs per g faeces

## Oc1c(Br)cc(F)cc1Cc1cc(Br)cc(Cc2cc(F)cc(Br)c2O)c1O [Compound 25]
[1]; 12.5 mg/kg oral, killed day 14
  Post Mortem Results: No of adult fluke: 0
[1]; 12.5 mg/kg oral, day 7
  Faecal Egg Count: 0 Eggs per g faeces
[1]; 12.5 mg/kg oral, day 14
  Faecal Egg Count: 0 Eggs per g faeces

## CC(=O)Oc1c(Cc2cc(Cl)cc(Br)c2O)cc(F)cc1Cc1cc(Cl)cc(Br)c1O [Compound 31]
[1]; 12.5 mg/kg oral, killed day 14
  Post Mortem Results: No of adult fluke: 0
[1]; 12.5 mg/kg oral, day 7
  Faecal Egg Count: 220 Eggs per g faeces
[1]; 12.5 mg/kg oral, day 14
  Faecal Egg Count: 10 Eggs per g faeces

## Oc1c(Br)cc(F)cc1Cc1cc(Cl)cc(Cc2cc(F)cc(Br)c2O)c1O [Compound 2, 2,6-bis(3-bromo-5-fluoro-2-hydroxybenzyl)-4-chlorophenol]
[1]; 3.1 mg/kg oral, killed day 14
  Post Mortem Results: No of adult fluke: 0
[1]; 6.5 mg/kg oral, killed day 14
  Post Mortem Results: No of adult fluke: 0
[1]; 12.5 mg/kg oral, killed day 14
  Post Mortem Results: No of adult fluke: 0
[1]; 12.5 mg/kg s/c, killed day 14
  Post Mortem Results: No of adult fluke: 0
[1]; 3.1 mg/kg oral, day 7
  Faecal Egg Count: 20 Eggs per g faeces
[1]; 3.1 mg/kg oral, day 14
  Faecal Egg Count: 0 Eggs per g faeces
[1]; 6.5 mg/kg oral, day 7
  Faecal Egg Count: 40 Eggs per g faeces
[1]; 6.5 mg/kg oral, day 14
  Faecal Egg Count: 0 Eggs per g faeces
[1]; 12.5 mg/kg oral, day 2
  Faecal Egg Count: 130 Eggs per g faeces
[1]; 12.5 mg/kg oral, day 7
  Faecal Egg Count: 0 Eggs per g faeces
[1]; 12.5 mg/kg oral, day 13
  Faecal Egg Count: 0 Eggs per g faeces
[1]; 12.5 mg/kg s/c, day 3
  Faecal Egg Count: 3800 Eggs per g faeces
[1]; 12.5 mg/kg s/c, day 7
  Faecal Egg Count: 0 Eggs per g faeces
[1]; 12.5 mg/kg s/c, day 14
  Faecal Egg Count: 0 Eggs per g faeces

## Oc1c(Cl)cc(F)cc1Cc1cc(Cl)cc(Cc2cc(F)cc(Cl)c2O)c1O [Compound 17]
[1]; 12.5 mg/kg oral, killed day 14
  Post Mortem Results: No of adult fluke: 2
[1]; 12.5 mg/kg oral, day 7
  Faecal Egg Count: 150 Eggs per g faeces
[1]; 12.5 mg/kg oral, day 14
  Faecal Egg Count: 20 Eggs per g faeces
[1]; 12.5 mg/kg oral, day 18
  Faecal Egg Count: 20 Eggs per g faeces

## Oc1c(I)cc(Cl)cc1Cc1cc(F)cc(Cc2cc(Cl)cc(I)c2O)c1O [Compound 29]
[1]; 6.3 mg/kg oral, killed day 14
  Post Mortem Results: No of adult fluke: 0
[1]; 12.5 mg/kg oral, killed day 14
  Post Mortem Results: No of adult fluke: 0
[1]; 6.3 mg/kg oral, day 7
  Faecal Egg Count: 0 Eggs per g faeces
[1]; 6.3 mg/kg oral, day 14
  Faecal Egg Count: 0 Eggs per g faeces
[1]; 12.5 mg/kg oral, day 7
  Faecal Egg Count: 10 Eggs per g faeces
[1]; 12.5 mg/kg oral, day 14
  Faecal Egg Count: 0 Eggs per g faeces
[2]; 10 mg/kg
  effective against immature fluke: 81%
